Measurements taken from PubChem BioAssay (NCI).
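In this assay, cells in 96-well plates receive the compound at five concentrations for 48 hours. Endpoints are linearly interpolated between the surrounding concentrations. The concentration for 50% growth inhibition is given as GI50. At the TGI there is no net growth.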

How the values were obtained:
Assay in all cases: NCI tumour cell line growth inhibition, 48 h
A549 NSCLC = tested on: A549 NSCLC
CAKI-1 renal = tested on: CAKI-1 renal
HOP-92 NSCLC = tested on: HOP-92 NSCLC
HT29 colon = tested on: HT29 colon
K-562 leukemia = tested on: K-562 leukemia
M14 melanoma = tested on: M14 melanoma
MALME-3M melanoma = tested on: MALME-3M melanoma
SK-MEL-5 melanoma = tested on: SK-MEL-5 melanoma
TK-10 renal = tested on: TK-10 renal
U251 CNS = tested on: U251 CNS

Compound: CC1OC(OCC2OC(Oc3c(-c4ccc(O)cc4)oc4cc(O)cc(O)c4c3=O)C(OC3OC(C)C(O)C(O)C3O)C(O)C2O)C(O)C(O)C1O (centres undefined)
- TGI (A549 NSCLC): > 100 µM
- TGI (CAKI-1 renal): > 100 µM
- TGI (HOP-92 NSCLC): > 100 µM
- TGI (HT29 colon): > 100 µM
- TGI (K-562 leukemia): > 31.6 µM
- TGI (M14 melanoma): > 100 µM
- TGI (MALME-3M melanoma): > 100 µM
- TGI (SK-MEL-5 melanoma): > 100 µM
- TGI (TK-10 renal): > 100 µM
- TGI (U251 CNS): > 100 µM

Compound: Cc1ccc(S(=O)(=O)NCCNC2=CC(=O)c3nc4ccccc4c4ccnc2c34)cc1
- GI50 (A549 NSCLC): 15.2 µM
- TGI (A549 NSCLC): 44.5 µM
- GI50 (CAKI-1 renal): 20.5 µM
- TGI (CAKI-1 renal): 48.3 µM
- GI50 (HOP-92 NSCLC): 20.3 µM
- TGI (HOP-92 NSCLC): 55.7 µM
- GI50 (HT29 colon): 32.5 µM
- TGI (HT29 colon): 79.1 µM
- GI50 (K-562 leukemia): 25 µM
- TGI (K-562 leukemia): > 100 µM
- GI50 (M14 melanoma): 15.7 µM
- TGI (M14 melanoma): 58.2 µM
- GI50 (MALME-3M melanoma): 20.5 µM
- TGI (MALME-3M melanoma): 54.5 µM
- GI50 (SK-MEL-5 melanoma): 14.6 µM
- TGI (SK-MEL-5 melanoma): 33.9 µM
- GI50 (TK-10 renal): 20.2 µM
- TGI (TK-10 renal): 40.1 µM
- GI50 (U251 CNS): 24.7 µM
- TGI (U251 CNS): 63.9 µM

Compound: CCOC(=O)C1=C(c2ccccc2)N(C)c2ccccc2S1
- TGI (A549 NSCLC): > 100 µM
- TGI (CAKI-1 renal): > 100 µM
- TGI (HOP-92 NSCLC): > 100 µM
- TGI (HT29 colon): 46.1 µM
- TGI (K-562 leukemia): > 100 µM
- TGI (M14 melanoma): > 100 µM
- TGI (MALME-3M melanoma): > 100 µM
- TGI (SK-MEL-5 melanoma): 30.3 µM
- TGI (TK-10 renal): > 100 µM
- TGI (U251 CNS): 49.1 µM

Compound: COc1cc(/C=C\c2ccccc2)cc(OC)c1OC
- TGI (A549 NSCLC): > 80.3 µM
- TGI (CAKI-1 renal): > 100 µM
- TGI (HOP-92 NSCLC): 21.8 µM
- TGI (HT29 colon): 14.1 µM
- TGI (K-562 leukemia): > 43.2 µM
- TGI (M14 melanoma): 22.1 µM
- TGI (MALME-3M melanoma): 19.7 µM
- TGI (SK-MEL-5 melanoma): 9.12 µM
- TGI (TK-10 renal): > 50.3 µM
- TGI (U251 CNS): 29.4 µM

Compound: C=C(CCCCCCCCC)CC(=O)SCCNC(=O)CCNC(=O)C(O)C(C)(C)COP(=O)(O)OP(=O)(O)OCC1OC(n2cnc3c(N)ncnc32)C(O)C1OP(=O)(O)O (centres undefined)
- TGI (A549 NSCLC): > 100 µM
- TGI (CAKI-1 renal): > 100 µM
- TGI (HOP-92 NSCLC): > 100 µM
- TGI (HT29 colon): > 100 µM
- TGI (K-562 leukemia): > 31.6 µM
- TGI (M14 melanoma): 65 µM
- TGI (MALME-3M melanoma): > 100 µM
- TGI (SK-MEL-5 melanoma): 52.2 µM
- TGI (TK-10 renal): > 100 µM
- TGI (U251 CNS): > 100 µM

Compound: O=C([CH-]C(=O)c1ccccc1)c1ccccc1.O=C([CH-]C(=O)c1ccccc1)c1ccccc1.O=C([CH-]C(=O)c1ccccc1)c1ccccc1.[Nd+3].[OH3+]
- GI50 (A549 NSCLC): 8.41 µM
- TGI (A549 NSCLC): 31.8 µM
- GI50 (CAKI-1 renal): 5.34 µM
- TGI (CAKI-1 renal): 20.8 µM
- GI50 (HOP-92 NSCLC): 8.29 µM
- TGI (HOP-92 NSCLC): 25.5 µM
- GI50 (HT29 colon): 4.64 µM
- TGI (HT29 colon): 16.1 µM
- GI50 (K-562 leukemia): 2.8 µM
- TGI (K-562 leukemia): 16.7 µM
- GI50 (M14 melanoma): 6.89 µM
- TGI (M14 melanoma): 21.2 µM
- GI50 (MALME-3M melanoma): 9.41 µM
- TGI (MALME-3M melanoma): 36.4 µM
- GI50 (SK-MEL-5 melanoma): 2.79 µM
- TGI (SK-MEL-5 melanoma): 11.8 µM
- GI50 (TK-10 renal): 8.51 µM
- TGI (TK-10 renal): 74.7 µM
- GI50 (U251 CNS): 9.22 µM
- TGI (U251 CNS): > 100 µM

Compound: COc1ccc(-c2nc3sc(-c4ccc(Cl)cc4)cn3n2)cc1
- GI50 (A549 NSCLC): 1.59 µM
- TGI (A549 NSCLC): 5.89 µM
- GI50 (CAKI-1 renal): 1.79 µM
- TGI (CAKI-1 renal): 8.92 µM
- GI50 (HOP-92 NSCLC): 0.915 µM
- TGI (HOP-92 NSCLC): 7.61 µM
- GI50 (HT29 colon): 2.96 µM
- TGI (HT29 colon): > 50 µM
- GI50 (K-562 leukemia): 29.4 µM
- TGI (K-562 leukemia): > 50 µM
- GI50 (M14 melanoma): > 50 µM
- TGI (M14 melanoma): > 50 µM
- GI50 (MALME-3M melanoma): 2.71 µM
- TGI (MALME-3M melanoma): > 50 µM
- GI50 (SK-MEL-5 melanoma): 14 µM
- TGI (SK-MEL-5 melanoma): > 50 µM
- GI50 (TK-10 renal): 2.01 µM
- TGI (TK-10 renal): 5.62 µM
- GI50 (U251 CNS): 1.03 µM
- TGI (U251 CNS): 2.29 µM

Compound: CCC(=O)O[C@H]1CC[C@H]2[C@@H]3CC[C@H]4CC(=O)[C@H](C)C[C@]4(C)[C@H]3CC[C@]12C
- GI50 (A549 NSCLC): 19.5 µM
- TGI (A549 NSCLC): > 57.5 µM
- GI50 (CAKI-1 renal): > 41.7 µM
- TGI (CAKI-1 renal): > 100 µM
- TGI (HOP-92 NSCLC): 63 µM
- GI50 (HT29 colon): 19.2 µM
- TGI (HT29 colon): > 100 µM
- GI50 (K-562 leukemia): 5.51 µM
- TGI (K-562 leukemia): > 59.5 µM
- GI50 (M14 melanoma): 48.1 µM
- TGI (M14 melanoma): > 100 µM
- GI50 (MALME-3M melanoma): 45.7 µM
- TGI (MALME-3M melanoma): > 100 µM
- GI50 (SK-MEL-5 melanoma): 5.89 µM
- TGI (SK-MEL-5 melanoma): > 60.9 µM
- GI50 (TK-10 renal): 43.7 µM
- TGI (TK-10 renal): > 100 µM
- GI50 (U251 CNS): 34 µM
- TGI (U251 CNS): > 100 µM

Compound: O=C1C(c2c[nH]c3ccccc23)=C(c2c[nH]c3ccccc23)C(=O)N1O
- GI50 (A549 NSCLC): > 25 µM
- TGI (A549 NSCLC): > 25 µM
- GI50 (CAKI-1 renal): > 20.8 µM
- TGI (CAKI-1 renal): > 25 µM
- GI50 (HOP-92 NSCLC): 2.89 µM
- TGI (HOP-92 NSCLC): 21.7 µM
- GI50 (HT29 colon): > 25 µM
- TGI (HT29 colon): > 25 µM
- GI50 (K-562 leukemia): > 25 µM
- TGI (K-562 leukemia): > 25 µM
- GI50 (M14 melanoma): > 25 µM
- TGI (M14 melanoma): > 25 µM
- GI50 (MALME-3M melanoma): > 25 µM
- TGI (MALME-3M melanoma): > 25 µM
- GI50 (SK-MEL-5 melanoma): > 25 µM
- TGI (SK-MEL-5 melanoma): > 25 µM
- GI50 (TK-10 renal): > 25 µM
- TGI (TK-10 renal): > 25 µM
- GI50 (U251 CNS): > 25 µM
- TGI (U251 CNS): > 25 µM

Compound: O=Nc1c(-c2c(O)[nH]c3ccc([N+](=O)[O-])cc23)[nH]c2ccc(O)cc12
- GI50 (A549 NSCLC): 0.674 µM
- TGI (A549 NSCLC): > 60.6 µM
- GI50 (CAKI-1 renal): 0.332 µM
- TGI (CAKI-1 renal): > 100 µM
- GI50 (HOP-92 NSCLC): 2.78 µM
- TGI (HOP-92 NSCLC): > 29.1 µM
- GI50 (HT29 colon): 12.4 µM
- TGI (HT29 colon): > 100 µM
- GI50 (K-562 leukemia): 0.456 µM
- TGI (K-562 leukemia): > 37.7 µM
- GI50 (M14 melanoma): 0.496 µM
- TGI (M14 melanoma): > 87 µM
- GI50 (MALME-3M melanoma): 0.781 µM
- TGI (MALME-3M melanoma): 45.3 µM
- GI50 (SK-MEL-5 melanoma): 0.189 µM
- TGI (SK-MEL-5 melanoma): 0.414 µM
- GI50 (TK-10 renal): 2.24 µM
- TGI (TK-10 renal): > 100 µM
- GI50 (U251 CNS): 0.325 µM
- TGI (U251 CNS): > 35.1 µM
